Results from article PMC10223552 (Pharmaceuticals, 2023).
Where “and” joins values, the source holds several entries; their conditions need not be identical. Equal values may be shown once. Entries after “also recorded” stand apart in the source; their conditions may differ. Read-outs that look alike come from different tables or passages of the source.

How the values were obtained:
[1] = target: T1, hH3R (Homo sapiens, UniProt Q9Y5N1); assay: biochemical; format: binding
T1 construct: expressed in transfected cells
T1 sequence (Q9Y5N1 whole entry): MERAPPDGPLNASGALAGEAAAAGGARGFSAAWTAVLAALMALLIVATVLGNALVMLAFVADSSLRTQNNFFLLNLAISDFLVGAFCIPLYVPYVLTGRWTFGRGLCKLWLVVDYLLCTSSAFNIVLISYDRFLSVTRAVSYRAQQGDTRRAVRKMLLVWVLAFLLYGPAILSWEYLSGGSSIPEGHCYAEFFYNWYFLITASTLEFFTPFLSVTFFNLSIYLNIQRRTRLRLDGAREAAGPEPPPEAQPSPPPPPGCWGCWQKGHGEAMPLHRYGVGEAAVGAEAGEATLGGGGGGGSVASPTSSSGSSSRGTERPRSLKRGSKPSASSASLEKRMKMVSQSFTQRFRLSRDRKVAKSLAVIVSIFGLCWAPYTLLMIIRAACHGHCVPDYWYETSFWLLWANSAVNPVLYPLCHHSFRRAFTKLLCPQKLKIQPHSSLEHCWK
Description: All newly synthesized compounds were evaluated as H3R antagonists/inverse agonists on the guinea pig ileum (gpH3R), stimulated electrically to induce contractions. The distinct affinity profile and species-dependent pharmacology of H3R ligands are known. […] Therefore, to compare species differences, all newly synthesized compounds were subjected to radioligand displacement assay in membrane fractions of HEK-293 cells stably expressing hH3R. […] Ex vivo assay for histamine H3R and H1R antagonists were measured on the isolated guinea pig ileum stimulated to contractions by histamine. The pA2-values were calculated according to Arunlakshana and Schild. The radioligand-displacement binding assay was performed in membrane fractions of HEK-293 cells stably expressing hH3R. Cell cultivation and membrane preparation was performed according to Kottke et al.. The Ki values were calculated from the IC50 values using the Cheng–Prusoff equation [37]. The statistical calculations were performed on –log(Ki). […] The inhibitory activities of novel ADS compounds were assessed in spectrophotometric Ellman’s assay using AChE from electric eel (eeAChE) and BuChE from horse serum (eqBuChE).
3.3 hH3R radioligand displacement binding assay.
The radioligand displacement binding assay was performed in membrane fractions of HEK-293 cells stably expressing hH3R. Cell cultivation and membrane preparation was performed according to Kottke et al. [T. Kottke, […]
radioligand displacement assay, radioactively labeled [3H]Nα-methylhistamine was used at a final concentration […]
The total assay volume was set to 200 µL. The compounds were tested in several appropriate concentrations between 100 µM and 0.1 nM. Pipetting was partly done by Freedom Evo® (Tecan).
The membrane fraction (20 […]
µg/well), test compounds and radiolabeled ligand were incubated for 90 minutes at 25 °C while shaking. The bound radioligand was separated from the free radioligand by filtration through GF/B filters pre-treated with 0.3 % (m/v) polyethyleneimine using a cell harvester. Radioactivity was determined by liquid scintillation counting using a MicroBeta® Trilux (Perkin Elmer). The data was obtained in duplicates in at least three independent experiments. Non-specific binding was subtracted from the raw data to calculate specific-binding values. The evaluation was performed with GraphPad Prism 6.1 (San Diego, CA, USA) using non-linear regression (one-site competition with a logarithmic scale). The Ki values were calculated from the IC50 values using the Cheng-Prusoff […]
equation. [C. […] The statistical calculations […]
were performed on –log(Ki).

[2] = target: T2, eeAChE (Electrophorus electricus, UniProt O42275); assay: biochemical; parameters: species or system electric eel; settings: 10 µM; read-out: eeAChE % inh. (10 µM) ± SD
T2 construct: purchased Sigma–Aldrich (Steinheim, Germany)
T2 sequence (O42275 24-633): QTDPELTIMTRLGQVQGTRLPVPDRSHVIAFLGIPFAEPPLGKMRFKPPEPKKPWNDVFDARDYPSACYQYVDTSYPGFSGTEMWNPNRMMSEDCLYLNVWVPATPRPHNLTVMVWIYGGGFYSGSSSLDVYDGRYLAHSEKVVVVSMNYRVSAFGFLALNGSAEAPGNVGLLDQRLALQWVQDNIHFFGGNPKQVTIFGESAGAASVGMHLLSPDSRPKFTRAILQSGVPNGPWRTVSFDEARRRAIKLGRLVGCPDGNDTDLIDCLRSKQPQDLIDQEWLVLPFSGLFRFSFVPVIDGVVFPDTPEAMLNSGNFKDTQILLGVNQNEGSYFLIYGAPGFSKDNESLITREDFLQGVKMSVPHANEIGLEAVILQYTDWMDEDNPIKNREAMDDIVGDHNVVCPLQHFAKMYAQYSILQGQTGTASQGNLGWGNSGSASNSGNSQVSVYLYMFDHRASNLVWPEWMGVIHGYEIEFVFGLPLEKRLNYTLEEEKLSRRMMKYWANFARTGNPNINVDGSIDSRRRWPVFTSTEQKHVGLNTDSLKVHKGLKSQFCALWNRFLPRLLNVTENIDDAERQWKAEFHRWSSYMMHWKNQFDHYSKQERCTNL

[3] = tested on: MCF-7 breast cancer cells; assay: Apoptosis/necrosis detection (Annexin V-FITC/PI, image cytometry), MCF-7; format: cell-based, human; settings: MCF-7, IC50 concentration, 48 h
Description: (§1) The MTT test results prompted further study. Staining with propidium iodide and Annexin V-FITC was performed to distinguish apoptotic from necrotic cell death.
(§2) Apoptosis was analyzed using the NucleoCounter® NC-3000™ (Chemometec Inc., Lillerød, Denmark) according to the manufacturer’s protocol using Annexin V from Biotium (Fremont, CA, USA). MCF-7 and MDA-MB-231 cells were seeded into 6-well plates (2 × 10^5 cells/mL) and cultured until 70–80% confluence was reached. […] Scatter plots were used to determine the proportion of healthy cells (Annexin V-negative/PI-negative cells), early apoptotic cells (Annexin V-positive/PI-negative cells), late apoptotic cells (Annexin V-positive/PI-positive cells), and necrotic cells (Annexin V-negative/PI-positive cells). Data were derived from three independent experiments with three replicates.

[4] = target: eqBuChE (Equus caballus, UniProt P81908); assay: biochemical; settings: for inhibition at 10 µM: read-out: eqBuChE % inh. (10 µM) ± SD; for IC50: read-out: eqBuChE IC50 ± sem
eqBuChE, sequence (P81908 whole entry): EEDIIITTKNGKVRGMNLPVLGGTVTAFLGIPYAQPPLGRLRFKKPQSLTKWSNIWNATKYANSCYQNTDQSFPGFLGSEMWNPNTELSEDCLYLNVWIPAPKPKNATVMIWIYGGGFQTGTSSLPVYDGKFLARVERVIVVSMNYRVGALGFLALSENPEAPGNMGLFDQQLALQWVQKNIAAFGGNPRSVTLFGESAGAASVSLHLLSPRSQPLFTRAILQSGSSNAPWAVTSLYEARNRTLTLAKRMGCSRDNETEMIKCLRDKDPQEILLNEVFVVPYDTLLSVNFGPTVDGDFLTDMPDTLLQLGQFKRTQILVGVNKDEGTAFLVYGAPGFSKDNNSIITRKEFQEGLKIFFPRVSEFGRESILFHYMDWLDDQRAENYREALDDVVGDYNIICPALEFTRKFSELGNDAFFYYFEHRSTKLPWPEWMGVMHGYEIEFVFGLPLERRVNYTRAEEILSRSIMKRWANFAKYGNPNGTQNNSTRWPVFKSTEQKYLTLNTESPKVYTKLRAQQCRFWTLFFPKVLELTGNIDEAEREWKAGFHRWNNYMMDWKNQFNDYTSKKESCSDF

[5] = tested on: MDA-MB-231 breast cancer cells; assay: Apoptosis/necrosis detection (Annexin V-FITC/PI, image cytometry), MDA-MB-231; format: cell-based, human; settings: 48 h
Description: as §1, §2

[6] = In vitro metabolic stability in human liver microsomes; format: in vitro ADME
Description: In addition to biological activity, drug-likeness is equally important in drug discovery, and should be considered at the early stage of the drug development process. Therefore, ADS10310 was subjected to testing for several ADME-Tox parameters, including metabolic stability.
(§3) All assays and protocols used for the determination of compound ADME-Tox parameters were described previously. In brief, the metabolic stability assay was performed on HLMs, purchased from Sigma-Aldrich (St. Louis, MO, USA). ADS10310 was incubated with HLMs for 120 min in Tris buffer (pH = 7.4) at 37 °C. NADPH regeneration system Promega (Madison, WI, USA) was added to initiate whereas methanol was added to terminate the reaction. The LC/MS analyses of the centrifuged reaction mixture were obtained on Waters ACQUITY™ TQD system (Waters, Milford, CT, USA). The in silico prediction of most probable sites of ADS10310 metabolism was performed by MetaSite 6.0.1 software (Molecular Discovery Ltd., Hertfordshire, UK). To predict potential DDIs the CYP3A4 and CYP2D6 P450-Glo™ kits provided by Promega (Madison, WI, USA) were used according to provided protocols. The results were calculated from two independent experiments.

[7] = target: T3, CYP2D6 (Homo sapiens, UniProt P10635); assay: Influence on CYP2D6 activity (P450-Glo); format: in vitro ADME
T3 construct: purchased Promega (Madison, WI, USA)
T3 sequence (P10635 whole entry): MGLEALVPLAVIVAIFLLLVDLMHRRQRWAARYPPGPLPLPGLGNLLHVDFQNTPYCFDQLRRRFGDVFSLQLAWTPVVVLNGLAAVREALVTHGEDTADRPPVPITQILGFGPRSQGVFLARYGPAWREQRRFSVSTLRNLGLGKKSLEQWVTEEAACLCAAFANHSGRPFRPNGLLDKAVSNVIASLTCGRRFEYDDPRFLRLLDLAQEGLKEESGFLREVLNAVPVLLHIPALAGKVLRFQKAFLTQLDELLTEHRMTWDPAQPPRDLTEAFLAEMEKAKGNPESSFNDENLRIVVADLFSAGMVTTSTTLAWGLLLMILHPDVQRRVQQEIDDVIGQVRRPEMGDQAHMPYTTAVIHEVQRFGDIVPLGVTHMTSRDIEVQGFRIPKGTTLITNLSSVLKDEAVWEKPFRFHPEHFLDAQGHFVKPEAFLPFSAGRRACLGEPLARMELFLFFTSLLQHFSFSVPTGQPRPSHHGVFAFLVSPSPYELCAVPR
Description: (§4) Treatment of elderly patients who suffer from cancer or degenerative CNS diseases usually requires the use of more than one medication at the same time, which can result in a greater risk of DDIs. […] The results were compared to the selective CYP3A4 inhibitor ketoconazole and selective CYP2D6 inhibitor quinidine.
as §3, with “To predict potential DDIs the CYP3A4 and CYP2D6 P450-Glo™ kits provided by Promega (Madison, WI, USA) were used according to provided protocols.” left out
(§5) The luminescent signal and the absorbances (measured at 490 nm) in DDIs and safety assays were measured by using an EnSpire PerkinElmer microplate reader (Waltham, MA, USA). […]

[8] = tested on: hepatoma HepG2 cell line; assay: Hepatotoxicity assay (MTS), HepG2; format: cell-based
Description: The cells were grown in Minimum Essential Media (MEM) supplemented with 10% fetal bovine serum (FBS) in a humidified atmosphere of 5% CO2 to reach 70–80% confluency. The cells were seeded next into 96-well plates at a concentration of 0.7 × 10^4 cells/well. […] The 1% DMSO in culture media was used as the vehicle control.

[9] = target: T4, CYP3A4 (Homo sapiens, UniProt P08684); assay: Influence on CYP3A4 activity (P450-Glo); format: in vitro ADME
T4 construct: purchased Promega (Madison, WI, USA)
T4 sequence (P08684 whole entry): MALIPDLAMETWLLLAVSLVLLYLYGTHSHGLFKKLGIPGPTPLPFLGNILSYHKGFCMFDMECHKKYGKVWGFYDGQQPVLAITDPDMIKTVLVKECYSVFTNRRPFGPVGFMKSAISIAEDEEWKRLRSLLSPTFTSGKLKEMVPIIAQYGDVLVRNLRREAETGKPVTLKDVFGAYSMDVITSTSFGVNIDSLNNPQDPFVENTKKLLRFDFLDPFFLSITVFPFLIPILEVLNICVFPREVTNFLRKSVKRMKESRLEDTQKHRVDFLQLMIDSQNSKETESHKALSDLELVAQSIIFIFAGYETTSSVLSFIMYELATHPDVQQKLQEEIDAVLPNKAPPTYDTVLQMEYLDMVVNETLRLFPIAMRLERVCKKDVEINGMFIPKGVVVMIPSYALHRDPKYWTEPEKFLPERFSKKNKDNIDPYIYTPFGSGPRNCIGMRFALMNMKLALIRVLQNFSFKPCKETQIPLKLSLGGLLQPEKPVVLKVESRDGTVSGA
Description: as §4
as §3, with “To predict potential DDIs the CYP3A4 and CYP2D6 P450-Glo™ kits provided by Promega (Madison, WI, USA) were used according to provided protocols.” left out
as §5

Structure (SMILES)	Ki ([1]; mean ± sem, at least three independent experiments, read-out: hH3R -log(Ki) ± sem (converted)) [nM]	inhibition at 10 µM [2] [%]	early apoptotic cells (Q1lr) [3] [%]	late apoptotic cells (Q1ur) [3] [%]	inhibition at 10 µM [4] [%]	IC50 [4] [nM]	early apoptotic cells (Q1lr) ([5]; MDA-MB-231, IC50 concentration) [%]	late apoptotic cells (Q1ur) ([5]; MDA-MB-231, IC50 concentration) [%]	Ki ([1]; hH3R Ki)	Substrate Remaining ([6]; 120 min incubation with HLMs, Tris buffer pH 7.4, 37 °C) [%]	Metabolic Pathway ([6]; HLMs, metabolites M1-M3 by LC/MS)	CYP2D6 inhibition (in words) [7]	decrease of CYP2D6 activity ([7]; lowest tested dose of 0.1 µM)	decrease of hepatoma HepG2 cell viability ([8]; 100 µM, 72 h)	HepG2 cell viability at concentrations up to 50 µM ([8]; 72 h)	hepatotoxic activity (in words) ([8]; HepG2, 72 h, 0.01-100 µM)	influence on CYP3A4 activity [9]	mode of cell death (in words) ([5]; both breast cancer lines, IC50 concentration)
N=C(N)N(CCCCN1CCN(CCCCCCCOc2ccccc2)CC1)Cc1ccccc1 [ADS1017]	513	49.7 ± 0.7	2	38	70.8 ± 0.6	5100 ± 100	22	39										
Cl.Cl.N=C(NCCCCc1ccc(Cl)cc1)NCCCCN1CCCCC1 [ADS10310]		7.3 ± 0.9			83.9 ± 0.1	1700 ± 100			< 200 nM and 127 nM	73.6	decomposition and triple hydroxylation	strongly inhibited CYP2D6; also recorded: strong inhibitor of CYP2D6 activity	more than 50%	~ 40%	no decrease	weak hepatotoxic activity	did not show any influence on CYP3A4 activity	mainly late apoptotic cells
